Laboratory results as given in patent publication US5858670A, “Bio-oligomer libraries and a method of use thereof” (The Arizona Board of Regents, priority 1996, dated 1999).
Where no end group is shown, it is not given here. [ ]: non-standard residue; d: D form. Ahx = NCCCCCC(=O)O; βAla = NCCC(=O)O

System: anti-β-endorphin MAb
Experiment: library bead screening with biotinylated anti-β-endorphin MAb and streptavidin-alkaline phosphatase
Type: binding
Details: recycled pentapeptide library, 16 hours with biotinylated MAb
Procedure: Prior to using the same random peptide library to screen with anti-β-endorphin MAb, all the blue beads that had stained for streptavidin-alkaline phosphatase alone were removed. The remaining beads were then treated with 8M guanidine hydrochloride to remove any bound protein. This recycled library was then mixed with biotinylated anti-β-endorphin MAb (anti-β-endorphin, clone 3-E7, was obtained commercially from Boehringer Mannheim, Indianapolis, Ind.) for 16 hours. After extensive washing, a secondary step with streptavidin-alkaline phosphatase was used to trigger the staining reaction for the ELISA. […] Peptide analogues with various carboxyl terminus of these ligand leads were synthesized and their affinity (Ki) was determined using [^3 H]Leu-enkaphalin (New England Nuclear, Boston, Mass.) as the labelled ligand and the unlabelled peptides as the competing ligand (anti-β-endorphin assay, Section 10.1.2, supra).
With YGALQ the “identified as ligand bead in the screening” value (from here on “identified as ligand bead”) was “identified in this screening”. In the case of YGGFA, the “identified as ligand bead” value is reported as “identified in this screening”. For YGGFQ, the “identified as ligand bead” value was “identified in this screening”. With YGGFT the “identified as ligand bead” value was “identified in this screening”. With YGGLS the “identified as ligand bead” value was “identified in this screening”. For YGGMV, the “identified as ligand bead” value was “identified in this screening”.

System: anti-v-mos monoclonal antibody
Experiment: PAM resin bead staining with anti-v-mos monoclonal antibody and labelled secondary antibody (Example 9)
Type: binding, mouse
Details: 1 ug/ml MAb, secondary antibody 1:100, ABTS with H2O2, 15 minutes
Procedure: Approximately 0.1 mg of the PAM resin/v-mos peptide described above was mixed with a hundred-fold excess of N^β -Fmoc-alanine PAM resin beads obtained from Bachem, Inc. Two ml of the purified monoclonal antibody (1 ug/ml) in PBS plus 0.1% Tween 20 were added to the peptide/support mixture and incubated at room temperature for 45 minutes with gentle mixing.
The beads were washed on a small polypropylene disposable column (obtained from Isolab) which retained the beads on a frit. The beads were then mixed with 2 ml of […] secondary antibody (1:100 dilution) for one hour. After washing, the beads were spread on a piece of glass filter and soaked in 2,2'-azinobis (3-ethylbenzthiozoline sulfonic acid) (ABTS) substrate with H2 O2. […] A small surrounding lighter green halo formed on the glass filter. […] The v-mos beads were readily distinguished.
For “Gly-Phe-Gly-Ser-Val-Tyr-aminocaproic acid-β-Ala-resin (GFGSVY-{Ahx-βAla-PAM resin}) [PAM resin/v-mos peptide beads]”, the “bead colour after staining” value was “turned dark green”.

System: not listed separately
Experiment: UV/VIS irradiation of ONb-linked peptide resins, HPLC of released product
Type: physicochemical
Details: in water
Procedure: Each peptide was irradiated for 1 and 3 hours with ultraviolet (UV) and visible (VIS) light in 0.3 ml of water or 3/7 mixture of chloroethanol:dichloromethane. A total of 16+16 experiments were run and assayed.
After exposure the supernatant was filtered off, lyophilized and re-dissolved to equal volumes of MeOH (0.3 ml). The products were analyzed on the HPLC.
In the case of “Fmoc-Trp-Tyr (OBu^t)-Phe-βNb-gAla-ACA-EDA-PepSyn K [peptide i]”, the cleavage product is reported as “cleaved to a single product”.

Molecular target: anti-β-endorphin MAb
Experiment: anti-β-endorphin binding assay: peptide inhibition of [3H][Leu]enkephalin binding, solution phase
Details: peptide with carboxyl terminus --NH2; competition with 5.0 nM [3H][Leu]enkephalin; read-out: Ki, Carboxyl Terminus --NH2
Procedure: Peptide ligand binding affinities for the anti-β-endorphin monoclonal antibody were determined in solution phase. […] Specific binding was defined as the difference between binding measured in the presence or absence of 1.0 μM unlabelled [Leu]enkephalin. Bound radioligand was precipitated by the addition of a 10-fold excess of Protein-G Sepharose (Pharmacia) followed by an overnight incubation (23°-24° C.). The Protein-G Sepharose was collected by centrifugation (13,000×g for 5 minutes) and the pellets suspended in 250 μl 5% (v/v) acetic acid before transfer to vials for liquid scintillation counting. […] Peptide ligand inhibition curves were produced for eight concentrations of the peptide over a 400-fold range. Binding data for saturation and inhibition studies were analyzed by weighted-nonlinear regression methods using appropriate one site models reported by Knapp et al. (1990, J. Pharmacol. Exp. Ther. 255:1278-1282). Ki values for inhibition binding constants were calculated using the method of Cheng and Prusoff (1973, Biochem. Pharmacol. 22:3099-3102). Each Ki value was calculated from three to four independent determinations.
YGGFA gave a Ki of 0.072 ± 0.0164 µM. For YGGFQ, the Ki was 0.0401 ± 0.006 µM. In the case of YGGFT, the Ki is reported as 0.0652 ± 0.0168 µM. With YGGLQ the Ki was 2.91 ± 0.695 µM. YGGLS showed a Ki of 0.991 ± 0.052 µM. Compound YGGMV has a Ki of 14 ± 1.11 µM.

Same assay, conditions: peptide with carboxyl terminus --OH; competition with 5.0 nM [3H][Leu]enkephalin; read-out: Ki, Carboxyl Terminus --OH
Work on YGGFA yielded a Ki of 0.0329 ± 0.002 µM. Work on YGGFQ yielded a Ki of 0.015 ± 0.0017 µM. In the case of YGGFT, the Ki is reported as 0.0369 ± 0.0077 µM. Compound YGGLQ has a Ki of 1.98 ± 0.303 µM. Work on YGGLS yielded a Ki of 0.726 ± 0.134 µM. YGGMV showed a Ki of 8.78 ± 1.5 µM.

Same assay, conditions: saturation analysis, n=3, 5 radioligand concentrations 1.87-30 nM
Work on “[^3 H][Leu]enkephalin [reference compound]” yielded a Kd of 0.00979 ± 0.00463 µM.

System: anti-v-mos monoclonal antibody
Experiment: bead staining with anti-v-mos monoclonal antibody and alkaline phosphatase secondary antibody (Example 8)
Type: binding, mouse
Details: 1 μg/ml MAb, secondary antibody 1:2000, BCIP/NBT, 15 minutes
Procedure: The long v-mos beads were mixed with a thousand fold excess of the short v-mos beads. Two milliliters of the purified anti-v-mos monoclonal antibody (1 μg/ml) in PBS with 0.1% Tween 20 was added to the mixture of long and short v-mos beads and incubated at room temperature for one hour with gentle mixing. […]. The beads were then washed on a small polypropylene disposable column (obtained from Isolab) where the beads were retained by the frit. The beads were then mixed with 2 ml of a secondary antibody at 1:2000 dilution for one hour. After washing, the beads were poured into a polystyrene petri dish and allowed to settle. The supernatant was removed and a solution of 5-bromo-4-chloro-3-indoyl phosphate and nitro blue tetrazolium was gently added as a substrate.
This made it possible immediately to detect a single dark bead within a lawn of thousands of colorless beads. The distinction between the beads is illustrated in FIGS. 2 to 4, all of which are photographs at 40× magnification of the beads distributed in petri dishes. […] Accordingly, the beads that contained the peptide sequence of interest were readily distinguished and isolated from the other beads in the library.
For “GSVYKA [short v-mos beads, residue 106-111 of the v-mos gene product on polyacrylamide bead; negative control, reference compound]”, the “bead colour after staining” value was “remained colorless”. With “Leu-Gly-Ser-Gly-Gly-Phe-Ser-Val-Tyr-Lys-Ala-aminocaproic acid-ethylenediamine resin [long v-mos beads]” the “bead colour after staining” value was “turned purple”.

Molecular target: T1, streptavidin (Streptomyces avidinii, UniProt P22629)
T1 construct: purchased Pierce, Rockford, Ill
T1 sequence (P22629 25-183, species assumed): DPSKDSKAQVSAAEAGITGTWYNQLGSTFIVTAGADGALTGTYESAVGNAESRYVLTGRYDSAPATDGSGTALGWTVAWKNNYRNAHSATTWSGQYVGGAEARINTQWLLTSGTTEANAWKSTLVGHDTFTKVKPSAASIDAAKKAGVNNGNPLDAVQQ
Experiment: biotin inhibition of LHPQF-resin staining by streptavidin-alkaline phosphatase
Type: binding
Details: biotin 0.1 nM
Procedure: FIG. 8. […] A: 100 nM; B: 10 nM; C: 1 nM; and D: 0.1 nM biotin. Blank beads (β-Ala-aminocaproic acid-resin) were mixed 1:1 with the LHPQFD-resin prior to incubating with streptavidin-alkaline phosphatase to serve as an internal negative control.
The LHPQF-resin was then mixed with streptavidin-alkaline phosphatase in the presence of varying concentration of biotin. […] The inhibition study establishes that the HPQ consensus sequence binds to the biotin-binding site of streptavidin.
With `O=C(O)CCCC[C@@H]1SC[C@@H]2NC(=O)N[C@@H]21` [Biotin, biotin] the “inhibition of staining of LHPQF-resin” value was “no effect on the staining”.

Same assay, conditions: biotin 1.0 nM
For `O=C(O)CCCC[C@@H]1SC[C@@H]2NC(=O)N[C@@H]21` [Biotin, biotin], the “inhibition of staining of LHPQF-resin” value was “partially inhibited the staining”.

Same assay, conditions: biotin 10 nM
With `O=C(O)CCCC[C@@H]1SC[C@@H]2NC(=O)N[C@@H]21` [Biotin, biotin] the “inhibition of staining of LHPQF-resin” value was “partially inhibited the staining”.

Same assay, conditions: biotin 100 nM
For `O=C(O)CCCC[C@@H]1SC[C@@H]2NC(=O)N[C@@H]21` [Biotin, biotin], the “inhibition of staining of LHPQF-resin” value was “completely blocked staining”.

Same assay, conditions: biotin 100, 10, 1 and 0.1 nM (figure legend)
For `O=C(O)CCCC[C@@H]1SC[C@@H]2NC(=O)N[C@@H]21` [Biotin, biotin], the “effect on staining of LHPQF-resin mimotope beads” value was “concentration-dependent inhibitory effect”.

Molecular target: anti-v-mos MAb
Experiment: solution phase binding studies with [3H]Ac-v-mos radioligand
Set-up: species or system mouse
Details: competition with 20 nM [3H]Ac-v-mos for 10 μg/ml anti-v-mos MAb
Procedure: Peptide ligand affinity for anti-v-mos mAb was measured by solution phase binding studies using [^3 H]acetyl v-mos peptide ([^3 H]Ac-v-mos) as the radioligand. The radioligand was prepared by N-terminal acetylation of v-mos peptide, prior to the deprotection of the side chains, with an equimolar amount of [^3 H]sodium acetate (specific activity=2.52 Ci/mmole, New England Nuclear, Boston, Mass.). […] Specific binding was defined as the difference between [^3 H]Ac-v-mos binding in-the presence (nonspecific) and absence (total) of 100 μM unlabelled v-mos peptide for each [^3 H]Ac-v-mos concentration. Bound radioligand was separated by centrifugation using a 10-fold excess (binding capacity relative to immunoglobulin used) of Protein-G Sepharose (Pharmacia) to precipitate the antibody. […] Over 50% of the total binding was specific in the inhibition studies. Saturation and inhibition binding constants were determined for single site binding by nonlinear regression analysis as previously described (Knapp and Yamamura, 1990, Life Sci. 46:1457-1463).
With GFGSVY-NH2 the Ki was 246 to 337 µM. With GFGSVY-OH the Ki was greater than 1000 µM. GFGSVY[βAla]-NH2 showed a Ki of 409 to 442 µM. In the case of GFGSVY[βAla]-OH, the Ki is reported as 529 to 770 µM. In the case of GRRAYE-NH2, the Ki is reported as 24.7 ± 7 µM. GRRAYE-OH showed a Ki of 6.79 ± 2.31 µM. For GRRAYE[βAla]-NH2, the Ki was 9.02 to 20.4 µM. For GRRAYE[βAla]-OH, the Ki was 15.1 ± 0.5 µM. With GRREGP[βAla]-NH2 the Ki was 26.9 ± 6.2 µM. Work on GRRGME-OH yielded a Ki greater than 100 µM. With GRRGME[βAla]-NH2 the Ki was 24 ± 8.4 µM. In the case of GRRPYG-OH, the Ki is reported as greater than 1000 µM. Compound GRRPYG[βAla]-NH2 has a Ki of 20.5 ± 4.5 µM. “LGSGGFGSVYKA [residues 100 to 111 of the v-mos oncogene product, reference compound]” gave a Ki of 3.2 ± 0.4 µM.

System: anti-v-mos
Experiment: not given
Details: cited from earlier work
For GSVYKA [short v-mos peptide], the “affinity of the antibody” value is given as “negligible affinity”.
